The text below walks through data of publication PMC3794980, “Identification of Conserved and HLA Promiscuous DENV3 T-Cell Epitopes” (PLoS Neglected Tropical Diseases, 2013).

Targets include DRB1*0101 (Homo sapiens, UniProt P01903+P01911, A100R/D57E/F55L/F60I/F76Y/I96L/L162R/M171V/P40L/Q125E/R42F/V115G/Y59C); DRB1*0301 (Homo sapiens, UniProt P01903+P01911, A100K/A102G/A103R/A169T/F55Y/I96L/K41T/L162R/M171V/P40S/Q125H/Q178H/Q39Y/R42S/S66N/T106N/T262R/W38E/Y61H); DRB1*0401 (Homo sapiens, UniProt P01903+P01911, A100K/A169T/F76Y/I96L/K127E/L162R/M171V/N62H/P40V/Q125Y/R42H/S133A/S149N/S66Y/V115G/V209L/W38E); DRB1*0404 (Homo sapiens, UniProt P01903+P01911, A100R/A169T/F76Y/I96L/K127E/L162R/M171V/N62H/P40V/Q125Y/R42H/S133A/S149N/S66Y/V209L/W38E); DRB1*0405 (Homo sapiens, UniProt P01903+P01911, A100R/A169T/D86S/F76Y/I96L/K127E/L162R/M171V/N62H/P40V/Q125Y/R42H/S133A/S149N/S66Y/V115G/V209L/W38E); DRB1*0701 (Homo sapiens, UniProt P01903+P01911, A100R/A102G/A103Q/D57E/D86V/E43K/F76Y/K127E/L162R/M171V/P40G/Q125H/Q99D/R33Q/R42Y/R54Q/S133A/S66F/T210M/V115G/Y107V/Y59L/Y89S); DRB1*0802 (Homo sapiens, UniProt P01903+P01911, A100R/A103L/A169T/F76Y/H45Y/I96F/K41T/L162R/M171V/P40S/Q125H/Q178H/Q39Y/Q99D/R218S/R42G/S66Y/V115G/W38E); DRB1*0901 (Homo sapiens, UniProt P01903+P01911, A100R/A103E/D57H/D86V/F55Y/F60I/F76Y/I96F/K127E/L162R/M171V/P40D/Q125H/Q99R/R33Q/R42F/S133A/S66N/T210M/V115G/W38K/Y107V/Y59G/Y89S); DRB1*1101 (Homo sapiens, UniProt P01903+P01911, A100R/A169T/A87E/I96F/K41T/L162R/M171V/P40S/Q125H/Q178H/Q39Y/Q99D/R42S/S66Y/T262R/V115G/W38E); DRB1*1302 (Homo sapiens, UniProt P01903+P01911, A100E/A169T/K41T/L162R/M171V/P40S/Q125H/Q178H/Q39Y/Q99D/R42S/S66N/T262R/V115G/W38E/Y61H); DRB3*0101 (Homo sapiens, UniProt P01903+P79483); DRB4*0101 (Homo sapiens, UniProt P01903+P13762, G164S); DRB5*0101 (Homo sapiens, UniProt P01903+Q30154).

Common to all, as to assay: biochemical
Common to all, as to type: binding

Setting [1] is: competitive inhibition of radiolabeled standard peptide, '-' distinct from ND, read-out: Binding Affinity (nM) DRB1*0901.
Where [2] appears, read: competitive inhibition of radiolabeled standard peptide, '-' distinct from ND, read-out: Binding Affinity (nM) DRB1*1302.

Where two headings read alike, the source gives them in different places.

Chain of DRB1*1302 (P01903 26-254 limits assumed, other chains not shown): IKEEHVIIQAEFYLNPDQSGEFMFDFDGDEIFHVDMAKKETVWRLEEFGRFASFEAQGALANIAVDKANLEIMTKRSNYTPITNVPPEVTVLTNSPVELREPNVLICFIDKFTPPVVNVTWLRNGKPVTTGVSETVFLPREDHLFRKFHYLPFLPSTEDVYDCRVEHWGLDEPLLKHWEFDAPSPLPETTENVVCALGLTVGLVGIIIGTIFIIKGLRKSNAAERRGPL
Chain of DRB1*0301 (P01903 26-254, other chains not shown): as the sequence (P01903 26-254 limits assumed, other chains not shown) above
Chain of DRB1*1101 (P01903 26-254, other chains not shown): as the sequence (P01903 26-254 limits assumed, other chains not shown) above

In the case of `CSCC[C@H](NC(=O)[C@@H](NC(=O)[C@H](CCC(N)=O)NC(=O)[C@H](Cc1ccccc1)NC(=O)[C@H](CC(N)=O)NC(=O)[C@H](CCCCN)NC(=O)[C@@H]1CCCN1C(=O)[C@@H](N)CC(N)=O)[C@@H](C)O)C(=O)N1CCC[C@H]1C(=O)NCC(=O)N[C@H](C(=O)N[C@@H](Cc1ccccc1)C(=O)N[C@@H](CCC(N)=O)C(=O)N[C@H](C(=O)N[C@H](C(=O)O)[C@@H](C)O)[C@@H](C)O)[C@@H](C)O` [NS3 105-119], the IC50 against DRB1*0101 turned out to be 49 nM; against DRB1*0301, 11600 nM; on DRB1*0401 it was 5.4 nM; at DRB1*0404 it was 39 nM; at DRB1*0405, 96 nM; against DRB1*0701, 2790 nM. In addition, the IC50 on DRB1*0802 is 175 nM; at DRB1*0901, 407 nM; against DRB1*1101, 86 nM; on DRB1*1302 it was 2390 nM; against DRB3*0101 it was 2530 nM; against DRB4*0101 it was 843 nM. The IC50 at DRB5*0101 is 177 nM.

Consider `CC[C@H](C)[C@H](NC(=O)[C@H](CC(=O)O)NC(=O)[C@@H](N)CC(C)C)C(=O)N[C@@H](CCC(=O)O)C(=O)N[C@@H](CC(C)C)C(=O)N[C@@H](CCC(N)=O)C(=O)N[C@@H](CCCCN)C(=O)N[C@H](C(=O)N[C@@H](CCC(=O)O)C(=O)N[C@@H](C)C(=O)N[C@H](C(=O)N[C@@H](CCC(N)=O)C(=O)N[C@@H](CC(C)C)C(=O)N[C@@H](C)C(=O)N[C@H](C(=O)O)[C@@H](C)O)[C@@H](C)O)[C@@H](C)O` [Envelope 41-55], for which the IC50 was determined as 2.3 nM against DRB1*0101; 349 nM against DRB1*0401; 583 nM at DRB1*0405; 3.1 nM at DRB1*0701; 5.1 nM against DRB1*0802; 132 nM on DRB1*0901 (setting [1]). Also, the IC50 against DRB1*1101 stood at 3260 nM; on DRB1*1302 (setting [2]) it was 27 nM; against DRB3*0101 it was 3330 nM; against DRB4*0101, 6.5 nM; on DRB5*0101, 684 nM.

In the case of `CC[C@H](C)[C@H](NC(=O)[C@H](CC(C)C)NC(=O)[C@H](CCCCN)NC(=O)CN)C(=O)N[C@@H](Cc1c[nH]cn1)C(=O)N[C@@H](CCC(=O)O)C(=O)N[C@@H](Cc1c[nH]c2ccccc12)C(=O)N[C@@H](CS)C(=O)N[C@@H](CS)C(=O)N[C@@H](CCCNC(=N)N)C(=O)N[C@@H](CO)C(=O)N[C@@H](CS)C(=O)N[C@H](C(=O)N[C@@H](CC(C)C)C(=O)N1CCC[C@H]1C(=O)O)[C@@H](C)O` [NS1 305-319], the IC50 was 2600 nM against DRB1*0101; 841 nM on DRB1*0301; 1770 nM against DRB1*0401; 4390 nM against DRB1*0404; 3500 nM against DRB1*0405; 1200 nM on DRB1*0701. Moreover, the IC50 was 7200 nM at DRB1*0802; 11400 nM at DRB1*0901 (setting [1]); 4400 nM against DRB1*1101; 3190 nM on DRB1*1302 (setting [2]); 1240 nM at DRB3*0101; 2040 nM at DRB4*0101. For the same compound, the IC50 against DRB5*0101 came out at 6170 nM.

As for `CC(C)C[C@H](NC(=O)[C@H](CCCNC(=N)N)NC(=O)[C@H](Cc1c[nH]cn1)NC(=O)[C@H](CC(=O)O)NC(=O)[C@H](CS)NC(=O)[C@H](CC(C)C)NC(=O)[C@H](CCC(N)=O)NC(=O)[C@@H](NC(=O)[C@H](Cc1ccc(O)cc1)NC(=O)[C@@H](NC(=O)[C@H](CCC(=O)O)NC(=O)[C@H](CCCNC(=N)N)NC(=O)[C@H](CC(C)C)NC(=O)[C@H](CCCCN)NC(=O)[C@@H](N)CC(C)C)C(C)C)[C@@H](C)O)C(=O)O` [NS1 169-183], the IC50 at DRB1*0101 was 226 nM; on DRB1*0301, 2360 nM; on DRB1*0401, 474 nM; at DRB1*0404 it was 457 nM; on DRB1*0405, 277 nM; against DRB1*0701 it was 136 nM. Also, the IC50 against DRB1*0802 was found to be 2580 nM; against DRB1*1101 it was 4800 nM; at DRB1*1302 (setting [2]) it was 9960 nM; against DRB3*0101, 747 nM; on DRB4*0101, 878 nM; at DRB5*0101, 1300 nM.
